Test results taken from patent US4161520A, “Method of treating hypertension” (priority 1976, dated 1979).

How the values were obtained:
Format in all cases: in vivo
[1] = system: DOCA Na rat; experiment: Low dose chronic administration in the DOCA Na rat (Example 4, Table IV); conditions: for Stroke Volume Index, mean value: control 4.82±0.31; for Pulse pressure, mean value: control 62.5±5.3; for Arterial blood pressure, mean value: control 175.0±3.8; for Arterial blood pressure, % Δ / Pulse pressure, % Δ / Stroke Volume Index, % Δ: vs control
Protocol: A test was conducted for antihypertensive activity in the DOCA Na rat utilizing low dose chronic administration.
DOCA Na male rats weighing 170 to 210 grams are used in the test. DOCA Na hypertension is induced by unilateral nephrectomy followed by subcutaneous implantation of a 25 mg. desoxycorticosterone (DOCA) pellet. Animals are placed in individual cages receiving 0.9% sodium chloride solution to drink and rat chow diet ad libitum. Two weeks are allowed to elapse from the time of surgery for development of hypertension, i.e., systolic blood pressure of at least 150 mmHg.
Mean blood pressure and heart rate in the rats dosed at 5 mg/kg/day, 1 mg/kg/day, 0.1 mg/kg/day and as those used as controls are measured directly by placing a polyethylene catheter in a femoral artery and thereafter measuring the blood pressure by a Stathem Pressure Transducer. Control animals and drug dosed subjects are measured side by side. Direct readings were taken when the animal model began to show signs of inherent deterioration.
The experimental results are represented as absolute values. Drug-related alterations in mean blood pressure are expressed as percentage change by comparing control absolute values with drug absolute values. Compounds are considered active when about a 15% or greater reduction in blood pressure is obtained. However, the reduction in blood pressure must show mathematical significance ([…]).
A derivative of the polyether ionophore, laslaocid, i.e., the bromo derivative of lasalocid, was tested in the above screen. The compound was administered in a food admix on a daily basis.

[2] = system: DOCA-Na. rat; experiment: Comparative antihypertensive activity of polyether ionophores in the DOCA-Na rat (Example 3, Table III); conditions: oral, five-day period, daily dose 1/100 of oral LD50 up to 10 mg/kg/day
Protocol: Using bromolasalocid as a standard for comparison, a number of polyether ionophores were tested for antihypertensive activity. The tests were conducted utilizing single oral dosages in the DOCA-Na. rat over a five-day period with dosing discontinued thereafter. Blood pressure monitoring was carried out for the five-day period and daily after cessation of dosing until blood pressure returned to pre-drug levels. […] The daily dosage was calculated by using one-one hundredth (1/100) of the oral (per os) toxicity (LD50) up to a maximum of 10 mg/kg/day. The antihypertensive activity expressed as AHR (Subacute antihypertensive ratio) was calculated using bromolasalocid as the standard reference (Table III).

[3] = system: spontaneous hypertensive (SH) rat; experiment: Effects on blood pressure in the spontaneous hypertensive (SH) rat (Example 2, Table II)
Protocol: Test conducted for effects on blood pressure in the spontaneous hypertensive (SH) rat.
Twelve week old spontaneous hypertensive male rats (Okomoto strain) are used as a model in the antihypertensive test.
Systolic blood pressure is measured indirectly from the tail of unanesthetized rats using a pneumatic pulse transducer. Control readings are taken prior to drug administration and post drug readings are taken at 1, 3, 6 and 24 hours.
Drug-related alteration in systolic blood pressure is expressed as percentage change by comparing control absolute values with post drug absolute values.
The results are expressed as absolute values and percent changes from controls.
Compounds are considered active when about a 15% or greater reduction in blood pressure is obtained. However, the reduction in blood pressure must show mathematical significance ([…]). The compound was administered for a five-day period by intubation and thereafter dosing was discontinued but blood pressure monitoring was continued.

[4] = 0.1 mg/kg/day in food admix, at 24 Days
[5] = 1 mg/kg/day in food admix, at 28 Days
[6] = 5 mg/kg/day in food admix, at 11 Days

CC[C@@H](C(=O)[C@@H](C)[C@@H](O)[C@H](C)CCc1c(Br)cc(C)c(O)c1C(=O)O)[C@H]1O[C@](CC)([C@H]2CC[C@](O)(CC)[C@H](C)O2)C[C@@H]1C [bromolasalocid]
Stroke Volume Index, mean value [1, 4]: 4.03±0.17
Pulse pressure, mean value [1, 4]: 41.1±7.4
Arterial blood pressure, mean value [1, 4]: 132.4±16.0
Arterial blood pressure, % Δ [1, 4]: -24.34%
Pulse pressure, % Δ [1, 4]: -34.24%
Stroke Volume Index, % Δ [1, 4]: -16.39%
Stroke Volume Index, mean value [1, 5]: 5.86±.31
Pulse pressure, mean value [1, 5]: 45±3.5
Arterial blood pressure, mean value [1, 5]: 140.1±16
Arterial blood pressure, % Δ [1, 5]: -19.94%
Pulse pressure, % Δ [1, 5]: -28.00%
Stroke Volume Index, % Δ [1, 5]: 21.58%
Stroke Volume Index, mean value [1, 6]: 4.96±0.61
Pulse pressure, mean value [1, 6]: 47.4±7.3
Arterial blood pressure, mean value [1, 6]: 140.0±12.6
Arterial blood pressure, % Δ [1, 6]: -20.00%
Pulse pressure, % Δ [1, 6]: -24.16%
Stroke Volume Index, % Δ [1, 6]: 2.90%
blood pressure (in words) ([1]; chronic administration): lowered
pulse pressure (in words) ([1]; chronic administration): lowered
pump performance (in words) ([1]; chronic administration): competent
stroke volume index (in words) ([1]; chronic administration): no significant alteration has occurred
ONSET TO MAX. RESPONSE [2]: 4 days
DURATION OF EFFECT ([2]; monitored until return to pre-drug levels): 15 days
Average Systolic Blood Pressure Per Group ([3]; 10 mg/kg per day for 5 days, Day 1 pm, pre-drug 227, p<.05): 211 mmHg
Average Systolic Blood Pressure Per Group ([3]; 10 mg/kg per day for 5 days, Day 2 am, pre-drug 227): 215 mmHg
Average Systolic Blood Pressure Per Group ([3]; 10 mg/kg per day for 5 days, Day 2 pm, pre-drug 227): 217 mmHg
Average Systolic Blood Pressure Per Group ([3]; 10 mg/kg per day for 5 days, Day 3 am, pre-drug 227, p<.05): 203 mmHg
Average Systolic Blood Pressure Per Group ([3]; 10 mg/kg per day for 5 days, Day 3 pm, pre-drug 227, p<.05): 199 mmHg
Average Systolic Blood Pressure Per Group ([3]; 10 mg/kg per day for 5 days, Day 4 am, pre-drug 227, p<.05): 193 mmHg
Average Systolic Blood Pressure Per Group ([3]; 10 mg/kg per day for 5 days, Day 4 pm, pre-drug 227, p<.05): 198 mmHg
Average Systolic Blood Pressure Per Group ([3]; 10 mg/kg per day for 5 days, Day 5 am, pre-drug 227, p<.05): 200 mmHg
Average Systolic Blood Pressure Per Group ([3]; 10 mg/kg per day for 5 days, Day 5 pm, pre-drug 227, p<.05): 209 mmHg
Average Systolic Blood Pressure Per Group ([3]; 10 mg/kg per day for 5 days, Day 8 am, pre-drug 227, p<.05): 199 mmHg
Average Systolic Blood Pressure Per Group ([3]; 20 mg/kg per day for 5 days, Day 1 pm, pre-drug 211): 201 mmHg
Average Systolic Blood Pressure Per Group ([3]; 20 mg/kg per day for 5 days, Day 2 am, pre-drug 211): 209 mmHg
Average Systolic Blood Pressure Per Group ([3]; 20 mg/kg per day for 5 days, Day 2 pm, pre-drug 211): 200 mmHg
Average Systolic Blood Pressure Per Group ([3]; 20 mg/kg per day for 5 days, Day 3 am, pre-drug 211): 214 mmHg
Average Systolic Blood Pressure Per Group ([3]; 20 mg/kg per day for 5 days, Day 3 pm, pre-drug 211): 209 mmHg
Average Systolic Blood Pressure Per Group ([3]; 20 mg/kg per day for 5 days, Day 4 am, pre-drug 211): 205 mmHg
Average Systolic Blood Pressure Per Group ([3]; 20 mg/kg per day for 5 days, Day 4 pm, pre-drug 211): 204 mmHg
Average Systolic Blood Pressure Per Group ([3]; 20 mg/kg per day for 5 days, Day 5 am, pre-drug 211): 210 mmHg
Average Systolic Blood Pressure Per Group ([3]; 20 mg/kg per day for 5 days, Day 5 pm, pre-drug 211, p<.05): 187 mmHg
Average Systolic Blood Pressure Per Group ([3]; 20 mg/kg per day for 5 days, Day 8 am, pre-drug 211): 210 mmHg
Average Systolic Blood Pressure Per Group ([3]; 50 mg/kg per day for 5 days, Day 1 pm, pre-drug 215): 208 mmHg
Average Systolic Blood Pressure Per Group ([3]; 50 mg/kg per day for 5 days, Day 2 am, pre-drug 215, p<.05): 193 mmHg
Average Systolic Blood Pressure Per Group ([3]; 50 mg/kg per day for 5 days, Day 2 pm, pre-drug 215, p<.05): 176 mmHg
Average Systolic Blood Pressure Per Group ([3]; 50 mg/kg per day for 5 days, Day 3 am, pre-drug 215, p<.05): 175 mmHg
Average Systolic Blood Pressure Per Group ([3]; 50 mg/kg per day for 5 days, Day 3 pm, pre-drug 215, p<.05): 160 mmHg
Average Systolic Blood Pressure Per Group ([3]; 50 mg/kg per day for 5 days, Day 4 am, pre-drug 215, p<.05): 183 mmHg
Average Systolic Blood Pressure Per Group ([3]; 50 mg/kg per day for 5 days, Day 4 pm, pre-drug 215, p<.05): 169 mmHg
Average Systolic Blood Pressure Per Group ([3]; 50 mg/kg per day for 5 days, Day 5 am, pre-drug 215, p<.05): 184 mmHg
Average Systolic Blood Pressure Per Group ([3]; 50 mg/kg per day for 5 days, Day 5 pm, pre-drug 215, p<.05): 167 mmHg
Average Systolic Blood Pressure Per Group ([3]; 50 mg/kg per day for 5 days, Day 8 am, pre-drug 215): 207 mmHg
Average Systolic Blood Pressure Per Group ([3]; 100 mg/kg per day for 5 days, Day 1 pm, pre-drug 218, p<.05): 176 mmHg
Average Systolic Blood Pressure Per Group ([3]; 100 mg/kg per day for 5 days, Day 2 am, pre-drug 218, p<.05): 185 mmHg
Average Systolic Blood Pressure Per Group ([3]; 100 mg/kg per day for 5 days, Day 2 pm, pre-drug 218, p<.05): 142 mmHg
Average Systolic Blood Pressure Per Group ([3]; 100 mg/kg per day for 5 days, Day 3 am, pre-drug 218, p<.05): 128 mmHg
Average Systolic Blood Pressure Per Group ([3]; 100 mg/kg per day for 5 days, Day 3 pm, pre-drug 218, p<.05): 123 mmHg
Average Systolic Blood Pressure Per Group ([3]; 100 mg/kg per day for 5 days, Day 4 am, pre-drug 218, p<.05): 113 mmHg
Average Systolic Blood Pressure Per Group ([3]; 100 mg/kg per day for 5 days, Day 4 pm, pre-drug 218, p<.05): 131 mmHg
Average Systolic Blood Pressure Per Group ([3]; 100 mg/kg per day for 5 days, Day 5 pm, pre-drug 218, p<.05): 108 mmHg
